For orientation: EC50 means the concentration that produces a half-maximal response.

For the first experiment, the target named is T1, ΔF508-CFTR (Homo sapiens, UniProt P13569, DEL508-508).
T1 construct: expressed in transfected cells
T1 sequence (P13569 with tags, fused parts or gaps DEL508-508): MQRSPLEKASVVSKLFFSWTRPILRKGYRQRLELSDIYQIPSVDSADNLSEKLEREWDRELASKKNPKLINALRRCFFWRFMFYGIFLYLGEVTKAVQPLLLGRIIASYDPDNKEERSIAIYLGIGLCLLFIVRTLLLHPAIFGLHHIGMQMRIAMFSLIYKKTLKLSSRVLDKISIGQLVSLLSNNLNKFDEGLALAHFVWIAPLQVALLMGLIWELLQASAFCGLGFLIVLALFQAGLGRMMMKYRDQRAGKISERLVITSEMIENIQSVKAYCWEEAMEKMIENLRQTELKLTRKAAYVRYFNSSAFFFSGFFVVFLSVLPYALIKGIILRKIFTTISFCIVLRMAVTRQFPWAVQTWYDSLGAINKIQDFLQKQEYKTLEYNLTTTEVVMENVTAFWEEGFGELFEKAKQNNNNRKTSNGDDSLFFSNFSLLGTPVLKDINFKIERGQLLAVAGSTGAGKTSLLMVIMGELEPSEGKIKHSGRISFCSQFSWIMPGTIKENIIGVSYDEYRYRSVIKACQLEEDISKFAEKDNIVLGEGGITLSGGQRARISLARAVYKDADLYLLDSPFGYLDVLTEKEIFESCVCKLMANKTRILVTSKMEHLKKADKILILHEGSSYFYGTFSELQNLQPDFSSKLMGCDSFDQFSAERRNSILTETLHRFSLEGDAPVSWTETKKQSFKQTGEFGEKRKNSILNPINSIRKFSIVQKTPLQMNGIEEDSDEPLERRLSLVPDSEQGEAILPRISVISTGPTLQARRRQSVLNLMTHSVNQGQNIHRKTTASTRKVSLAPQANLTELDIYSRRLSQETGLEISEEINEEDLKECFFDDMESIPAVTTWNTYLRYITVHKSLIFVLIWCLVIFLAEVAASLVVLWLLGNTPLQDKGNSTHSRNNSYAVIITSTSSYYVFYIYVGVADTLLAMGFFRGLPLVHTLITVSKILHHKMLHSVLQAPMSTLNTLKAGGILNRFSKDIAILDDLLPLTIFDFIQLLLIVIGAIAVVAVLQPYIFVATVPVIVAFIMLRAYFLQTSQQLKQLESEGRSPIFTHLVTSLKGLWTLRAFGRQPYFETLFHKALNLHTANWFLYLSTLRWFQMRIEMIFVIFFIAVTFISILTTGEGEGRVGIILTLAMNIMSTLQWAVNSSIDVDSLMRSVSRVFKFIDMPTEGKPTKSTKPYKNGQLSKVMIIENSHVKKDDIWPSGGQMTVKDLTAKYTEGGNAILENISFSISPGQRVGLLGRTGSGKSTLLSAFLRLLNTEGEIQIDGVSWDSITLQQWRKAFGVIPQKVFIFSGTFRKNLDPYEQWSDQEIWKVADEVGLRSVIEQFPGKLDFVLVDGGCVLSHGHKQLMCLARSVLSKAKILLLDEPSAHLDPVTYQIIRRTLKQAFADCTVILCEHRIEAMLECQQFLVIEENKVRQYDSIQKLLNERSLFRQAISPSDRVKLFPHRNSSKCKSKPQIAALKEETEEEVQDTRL
Description: Membrane potential optical assay (FRET voltage-sensor dyes, VIPR), identification of potentiator compounds. The experiment is classed as cell-based. As to conditions: Table 3; assay not given. Put shortly:
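Potentiator screen measured membrane potential via FRET between CC2-DMPE donor and DiSBAC2(3), read on VIPR II. Compound went in with the first addition of chloride-free gluconate bath; cells were ΔF508-CFTR-expressing NIH3T3 mouse fibroblasts, temperature-corrected at 27 °C for 24 h.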
In the case of `CC(=O)Nc1cccc(-c2ccccc2NC(=O)c2c[nH]c3ccccc3c2=O)c1` [Compound 25, N-[2-(3-acetylaminophenyl)phenyl]-4-oxo-1H-quinoline-3-carboxamide], the 50% effective concentration (EC50) was in the range of 10 to 25 µM.
As for `CN(C)c1cc(NC(=O)c2c[nH]c3ccccc3c2=O)ccc1C(C)(C)C` [Compound 485, N-(3-Dimethylamino-4-tert-butyl-phenyl)-4-oxo-1H-quinoline-3-carboxamide], the EC50 was less than 10 µM.

Still in this experiment, the particulars now being: Table 3; assay not given; read-out: % Activity (% Efficacy, relative efficacy).
For `CC(C)(C)c1c[nH]c2cc(NC(=O)c3c[nH]c4cccc(O)c4c3=O)ccc12` [Compound 535, 5-hydroxy-4-oxo-N-(3-tert-butyl-1H-indol-6-yl)-1H-quinoline-3-carboxamide], the Emax fell in the range of 25 to 100%.
On the same count and under the same terms, with `CCc1cc(C(C)(C)C)c(O)cc1NC(=O)c1c[nH]c2ccc(F)cc2c1=O` [Compound 649, N-(2-ethyl-5-hydroxy-4-tert-butyl-phenyl)-6-fluoro-4-oxo-1H-quinoline-3-carboxamide] the figure was 25 to 100%.
Still for that read-out and setting: to `Cc1ccnc(NC(=O)c2c[nH]c3ccccc3c2=O)c1` [Compound 84, N-(4-methyl-2-pyridyl)-4-oxo-1H-quinoline-3-carboxamide] belongs less than 25%; to `Cc1cccc2c(=O)c(C(=O)Nc3cc4[nH]ccc4cc3C(C)(C)C)c[nH]c12` [Compound 644, 8-methyl-4-oxo-N-(5-tert-butyl-1H-indol-6-yl)-1H-quinoline-3-carboxamide], less than 25%; to `CC(C)(C)c1cc(C(C)(C)C)c(NC(=O)c2c[nH]c3ccccc3c2=O)c(O)c1O` [Compound 220, N-(2,3-dihydroxy-4,6-ditert-butyl-phenyl)-4-oxo-1H-quinoline-3-carboxamide], 25 to 100%.
On the same count and under the same terms, to `CC1(c2cc(F)c(NC(=O)c3cnc4ccccc4c3O)cc2O)CCCCCC1` [Compound 483, N-[2-fluoro-5-hydroxy-4-(1-methylcycloheptyl)-phenyl]-4-hydroxy-quinoline-3-carboxamide] belongs 25 to 100%; to `COc1ccc2[nH]cc(C(=O)Nc3cc4[nH]ccc4cc3C(C)(C)C)c(=O)c2c1` [Compound 533, 6-methoxy-4-oxo-N-(5-tert-butyl-1H-indol-6-yl)-1H-quinoline-3-carboxamide], more than 100%; to `O=C(Nc1ccccc1-c1cccc(F)c1F)c1c[nH]c2ccccc2c1=O` [Compound 285, N-[2-(2,3-difluorophenyl)phenyl]-4-oxo-1H-quinoline-3-carboxamide], 25 to 100%.
Regarding `CC(C)c1ccc(-c2ccccc2NC(=O)c2c[nH]c3ccccc3c2=O)cc1` [Compound 432, N-[2-(4-isopropylphenyl)phenyl]-4-oxo-1H-quinoline-3-carboxamide], the Emax was in the range of 25 to 100%.
Same read-out and setting: to `COc1c(C(=O)Nc2ccc(C(C)(C)C)c(O)c2)cnc2ccccc12` [Compound 415, N-(3-Hydroxy-4-tert-butyl-phenyl)-4-methoxy-quinoline-3-carboxamide] belongs 25 to 100%; to `NS(=O)(=O)c1cccc(NC(=O)c2c[nH]c3ccccc3c2=O)c1` [Compound 9, 4-oxo-N-(3-sulfamoylphenyl)-1H-quinoline-3-carboxamide], less than 25%.
On the same count and under the same terms, to `O=C(Nc1ccc2[nH]c(=O)[nH]c2c1)c1c[nH]c2ccccc2c1=O` [Compound 64, 4-oxo-N-(2-oxo-1,3-dihydrobenzoimidazol-5-yl)-1H-quinoline-3-carboxamide] belongs less than 25%; to `CC(C)(C)c1cc(F)c(NC(=O)c2c[nH]c3ccccc3c2=O)cc1O` [Compound 143, N-(2-fluoro-5-hydroxy-4-tert-butyl-phenyl)-4-oxo-1H-quinoline-3-carboxamide], 25 to 100%; to `CCOc1ccccc1-c1ccc(CNC(=O)OC(C)(C)C)cc1NC(=O)c1c[nH]c2ccccc2c1=O` [Compound 304, {2′-Ethoxy-2-[(4-oxo-1,4-dihydroquinoline-3-carbonyl)-amino]-biphenyl-4-ylmethyl}-carbamic acid tert-butyl ester], 25 to 100%.
The same measure, in the same setting: to `O=C(Nc1ccccc1C(O)c1ccccc1)c1c[nH]c2ccccc2c1=O` (stereo not drawn) [Compound 228, N-[2-(hydroxy-phenyl-methyl)phenyl]-4-oxo-1H-quinoline-3-carboxamide] belongs 25 to 100%; to `O=C(Nc1cc2[nH]ccc2cc1-c1cccnc1)c1c[nH]c2ccccc2c1=O` [Compound 65, 4-oxo-N-[5-(3-pyridyl)-1H-indol-6-yl]-1H-quinoline-3-carboxamide], 25 to 100%.
For `CC(C)(C)c1cc(C(C)(C)C)c(NC(=O)c2c[nH]c3cc(F)c(F)cc3c2=O)cc1O` [Compound 672, 6,7-difluoro-N-(5-hydroxy-2,4-ditert-butyl-phenyl)-4-oxo-1H-quinoline-3-carboxamide], the Emax fell in the range of 25 to 100%.
Take `O=C(Nc1ccccc1N1CCOCC1)c1c[nH]c2ccccc2c1=O` [Compound 4, N-(2-morpholinophenyl)-4-oxo-1H-quinoline-3-carboxamide]: the Emax is 25 to 100%.
Same read-out and setting: to `CC(=O)Nc1cccc(-c2ccccc2NC(=O)c2c[nH]c3ccccc3c2=O)c1` [Compound 25, N-[2-(3-acetylaminophenyl)phenyl]-4-oxo-1H-quinoline-3-carboxamide] belongs 25 to 100%; to `CCOc1ccc2[nH]cc(C(=O)Nc3cc4[nH]ccc4cc3C(C)(C)C)c(=O)c2c1` [Compound 681, 6-ethoxy-4-oxo-N-(5-tert-butyl-1H-indol-6-yl)-1H-quinoline-3-carboxamide], 25 to 100%; to `CC(C)(C)c1cc2cc[nH]c2cc1NC(=O)c1c[nH]c2ccc(S(=O)(=O)N3CCCC3)cc2c1=O` [Compound 274, 4-oxo-6-pyrrolidin-1-ylsulfonyl-N-(5-tert-butyl-1H-indol-6-yl)-1H-quinoline-3-carboxamide], 25 to 100%.
On the same count and under the same terms, to `O=C(Nc1ccccc1N1CCN(C(=O)c2ccccc2)CC1)c1c[nH]c2ccccc2c1=O` [Compound 321, N-[2-(4-benzoylpiperazin-1-yl)phenyl]-4-oxo-1H-quinoline-3-carboxamide] belongs 25 to 100%; to `CC(C)c1ccc(N)cc1NC(=O)c1c[nH]c2ccccc2c1=O` [Compound 101, N-(5-amino-2-isopropyl-phenyl)-4-oxo-1H-quinoline-3-carboxamide], 25 to 100%.
Still for that read-out and setting: with `CN(C)c1cc(NC(=O)c2c[nH]c3ccccc3c2=O)ccc1C(C)(C)C` [Compound 485, N-(3-Dimethylamino-4-tert-butyl-phenyl)-4-oxo-1H-quinoline-3-carboxamide] the figure was 25 to 100%.
`CC(C)c1ccc(NC(=O)c2c[nH]c3ccccc3c2=O)cc1O` [Compound 575, N-(3-hydroxy-4-isopropyl-phenyl)-4-oxo-1H-quinoline-3-carboxamide]: the Emax fell in the range of 25 to 100%.
Still for that read-out and setting: to `O=C(Nc1cc(O)cc(C(F)(F)F)c1)c1c[nH]c2ccccc2c1=O` [Compound 563, N-[3-hydroxy-5-(trifluoromethyl)phenyl]-4-oxo-1H-quinoline-3-carboxamide] belongs 25 to 100%; to `COc1ccc(C)cc1NC(=O)c1c[nH]c2ccccc2c1=O` [Compound 120, N-(2-methoxy-5-methyl-phenyl)-4-oxo-1H-quinoline-3-carboxamide], 25 to 100%.
Same read-out and setting: with `CC(C)(C)c1ccc(NC(=O)c2c[nH]c3ccccc3c2=O)c(Cl)c1` [Compound 362, N-(2-chloro-4-tert-butyl-phenyl)-4-oxo-1H-quinoline-3-carboxamide] the figure was 25 to 100%; with `CC(C)c1c[nH]c2cc(NC(=O)c3c[nH]c4ccccc4c3=O)ccc12` [Compound 357, N-(3-isopropyl-1H-indol-6-yl)-4-oxo-1H-quinoline-3-carboxamide], 25 to 100%; with `Cc1cccc2[nH]cc(C(=O)Nc3cc4[nH]ccc4cc3C(F)(F)F)c(=O)c12` [Compound 661, 5-methyl-4-oxo-N-[5-(trifluoromethyl)-1H-indol-6-yl]-1H-quinoline-3-carboxamide], 25 to 100%.
Still for that read-out and setting: with `CC1(C)CNc2cc(NC(=O)c3c[nH]c4ccccc4c3=O)ccc21` [Compound 386, N-(3,3-dimethylindolin-6-yl)-4-oxo-1H-quinoline-3-carboxamide] the figure was 25 to 100%; with `Cn1c(=O)oc2ccc(NC(=O)c3c[nH]c4ccccc4c3=O)cc21` [Compound 474, N-(3-methyl-2-oxo-3H-benzooxazol-5-yl)-4-oxo-1H-quinoline-3-carboxamide], less than 25%; with `CC(C)(C)c1cc(F)c(NC(=O)c2c[nH]c3cc(F)c(F)cc3c2=O)cc1O` [Compound 486, 6,7-difluoro-N-(2-fluoro-5-hydroxy-4-tert-butyl-phenyl)-4-oxo-1H-quinoline-3-carboxamide], 25 to 100%.
For the compound `O=C(Nc1ccc(Sc2ccccc2)cc1)c1c[nH]c2ccccc2c1=O` [Compound 470, 4-oxo-N-(4-phenylsulfanylphenyl)-1H-quinoline-3-carboxamide], the Emax was in the range of 25 to 100%.
The same measure, in the same setting: with `COC(=O)Nc1cc(NC(=O)c2c[nH]c3ccccc3c2=O)ccc1C(C)C` [Compound 30, [2-isopropyl-5-[(4-oxo-1H-quinolin-3-yl)carbonylamino]phenyl]aminoformic acid methyl ester] the figure was 25 to 100%; with `O=C(Nc1cc(O)c(Cl)cc1Cl)c1c[nH]c2ccccc2c1=O` [Compound 608, N-(2,4-dichloro-5-hydroxy-phenyl)-4-oxo-1H-quinoline-3-carboxamide], 25 to 100%; with `CN(C)CCS(=O)(=O)Nc1cc(NC(=O)c2c[nH]c3ccccc3c2=O)cc(C(F)(F)F)c1` [Compound 359, N-[3-(2-dimethylaminoethylsulfonylamino)-5-(trifluoromethyl)phenyl]-4-oxo-1H-quinoline-3-carboxamide], 25 to 100%.
Still for that read-out and setting: to `Cc1cccnc1NC(=O)c1c[nH]c2ccccc2c1=O` [Compound 192, N-(3-methyl-2-pyridyl)-4-oxo-1H-quinoline-3-carboxamide] belongs less than 25%.
On the same count and under the same terms, to `CCc1ccc(NC(=O)OC)cc1NC(=O)c1c[nH]c2ccccc2c1=O` [Compound 249, [4-ethyl-3-[(4-oxo-1H-quinolin-3-yl)carbonylamino]phenyl]aminoformic acid methyl ester] belongs 25 to 100%; to `O=C(Nc1cccc(S(=O)(=O)N2CCOCC2)c1)c1c[nH]c2ccccc2c1=O` [Compound 185, N-(3-morpholinosulfonylphenyl)-4-oxo-1H-quinoline-3-carboxamide], less than 25%.
